From patent US20200093103A1, “BREEDING WATER FOR ANGUILLIFORMES AND METHOD FOR REARING ANGUILLIFORMES” (SHIN NIPPON BIOMEDICAL LABORATORIES, LTD., priority 2016, published 2020)

System: Anguilla japonica leptocephali
Assay: Induction of Anguilla japonica metamorphosis by T4 treatment in 23° C. breeding water
Type: in vivo
Parameters: key: L: During life, no characteristics of metamorphosis seen.; Stage 1: Starting phase of metamorphosis. The rostral end is rounded, and intestinal degeneration starts.; Stage 2: Peak phase of metamorphosis. Intestinal degeneration becomes pronounced.; Stage 3: Late phase of metamorphosis.; Stage 4: Pre-glass eel stage. Almost the eel form, but the body height still remains
Description: Stage 1: Starting phase of metamorphosis. The rostral end is rounded, and intestinal degeneration starts.
Stage 2: Peak phase of metamorphosis. Intestinal degeneration becomes pronounced. In the second half, the anus reaches to near the last vertical blood vessel (VBV last).
Stage 3: Late phase of metamorphosis. The preanal length (PAL) becomes equal to or shorter than the last vertical blood vessel length (VBV last Length) (PAL VBV last Length). The body height is apparently low.
Stage 4: Pre-glass eel stage. Almost the eel form, but the body height still remains. Melanophores on the body surface or endogenous melanophores are not yet seen.
Elver stage: Juvenile stage. Food intake can be identified.
A thyroid hormone (e.g., thyroxine (T4)) is adjusted to 50 to 100 mM in a 1- to 2-mL volume messflask. As a solvent, known solvents (water, alcohol) can be used. Ethanol is preferably used as the solvent.
For example, using ethanol as a solvent, T4 adjusted to 50 mM is diluted 500-fold, 5,000-fold, and 50,000-fold, respectively, and adjusted to […], 1 μM, and 100 nM. A feed can be prepared in this manner.
Artificial seawater is added to a breeding vessel, and 1/1000 of the […] T4 is added to prepare […] T4 breeding water.
Half of the breeding water is replaced every two days with breeding water of the same concentration. In the case where the concentration is changed, for example, in the case of changing from 10 nM to 2 nM, 80% to the breeding water is removed, and unadjusted artificial seawater is newly added to make 1 L.
Leptocephali visually considered to have reached a total length of 40 mm (or may be 30 mm to 50 mm, may be 35 mm to 45 mm, or may also be 35 mm or more, 40 mm or more, or 45 mm or more) are selected, anesthetized with 2-phenoxyethanol, and then photographed, and the total length of each larva is measured using an image analyzing device.
The larvae are placed in 10 nM T4 breeding water and then placed in an incubator set at 23° C., and breeding is started. In first one week, observation is performed every two days, and half of the 10 nM T4 breeding water is replaced each time. The average amount of thyroid hormone in the breeding water in stage 1 is 1 nM to 100 nM, for example, and may also be 3 nM to 30 nM, or 5 nM to 20 nM.
For larvae visually judged to have reached the second half of stage 2, the concentration of the breeding water is changed. The breeding water is diluted 5-fold or 10-fold and adjusted to 2 nM or 1 nM T4, and breeding is continued. The average amount of thyroid hormone in the breeding water in stage 2 may be, as compared with the breeding water of stage 1, diluted 2-fold to 20-fold, diluted 3 to 15-fold, or diluted 5 to 10-fold as described above. The average amount of thyroid hormone in the breeding water in stage 2 is 0.1 nM to 20 nM, for example, and may also be 0.5 nM to 10 nM, 1 nM to 5 nM, or 1 nM to 2 nM.
For larvae visually judged to have reached stage 3, the breeding water is quickly changed 0.2 nM T4 breeding water, which is a 5-fold dilution of 1 nM T4 breeding water, and further changed to 0.1 nM T4 breeding water on the following day. […] Also, in larvae whose anus position has not reached the last vertical hemal spine, when they are judged to be on the brink of stage 3, the concentration is changed as above. The average amount of thyroid hormone in the breeding water in stage 3 may be, as compared with the breeding water of stage 2, diluted 2-fold to 50-fold, diluted 3 to 15-fold, diluted 4 to 6-fold, or diluted 5-fold as described above. The average amount of thyroid hormone in the breeding water in stage 3 is 0.01 nM to 2 nM, for example, and may also be 0.05 nM to 1 nM, 0.1 nM to 0.5 nM, or 0.1 nM to 0.2 nM. […] That is, the concentration may be changed such that the thyroid hormone becomes undetectable in the breeding water in the course of stage 3.
In stage 3, breeding is continuously performed in the 0.1 nM T4 breeding water. […]

## N[C@@H](Cc1cc(I)c(Oc2cc(I)c(O)c(I)c2)c(I)c1)C(=O)O [T4, thyroxine]
Individual Exp. 5-2, 175 days old, total length 41.3 mm at start, c3 onward = treatment days 1,3,5,7,8,9,10,11,12,13,14,15,16,17,18, T4 (nM) 10,10,10,10,2,1,0.2,0.1,0.1,0.1,0.1,0.1, treatment day 14, T4 0.1 nM
  metamorphosis stage: 3
Individual Exp. 5-2, 175 days old, total length 41.3 mm at start, c3 onward = treatment days 1,3,5,7,8,9,10,11,12,13,14,15,16,17,18, T4 (nM) 10,10,10,10,2,1,0.2,0.1,0.1,0.1,0.1,0.1, treatment day 15, T4 0.1 nM
  metamorphosis stage: 3
Individual Exp. 5-2, 175 days old, total length 41.3 mm at start, c3 onward = treatment days 1,3,5,7,8,9,10,11,12,13,14,15,16,17,18, T4 (nM) 10,10,10,10,2,1,0.2,0.1,0.1,0.1,0.1,0.1, treatment day 16
  metamorphosis stage: 4
Individual Exp. 5-3, 175 days old, total length 41.7 mm at start, c3 onward = treatment days 1,3,5,7,8,9,10,11,12,13,14,15,16,17,18, T4 (nM) 10,10,10,10,2,1,0.2,0.1,0.1,0.1,0.1,0.1, treatment day 1, T4 10 nM
  metamorphosis stage: L
Individual Exp. 5-3, 175 days old, total length 41.7 mm at start, c3 onward = treatment days 1,3,5,7,8,9,10,11,12,13,14,15,16,17,18, T4 (nM) 10,10,10,10,2,1,0.2,0.1,0.1,0.1,0.1,0.1, treatment day 3, T4 10 nM
  metamorphosis stage: L
Individual Exp. 5-3, 175 days old, total length 41.7 mm at start, c3 onward = treatment days 1,3,5,7,8,9,10,11,12,13,14,15,16,17,18, T4 (nM) 10,10,10,10,2,1,0.2,0.1,0.1,0.1,0.1,0.1, treatment day 5, T4 10 nM
  metamorphosis stage: 1
Individual Exp. 5-3, 175 days old, total length 41.7 mm at start, c3 onward = treatment days 1,3,5,7,8,9,10,11,12,13,14,15,16,17,18, T4 (nM) 10,10,10,10,2,1,0.2,0.1,0.1,0.1,0.1,0.1, treatment day 7, T4 10 nM
  metamorphosis stage: 2
Individual Exp. 5-3, 175 days old, total length 41.7 mm at start, c3 onward = treatment days 1,3,5,7,8,9,10,11,12,13,14,15,16,17,18, T4 (nM) 10,10,10,10,2,1,0.2,0.1,0.1,0.1,0.1,0.1, treatment day 8, T4 2 nM
  metamorphosis stage: 2
Individual Exp. 5-3, 175 days old, total length 41.7 mm at start, c3 onward = treatment days 1,3,5,7,8,9,10,11,12,13,14,15,16,17,18, T4 (nM) 10,10,10,10,2,1,0.2,0.1,0.1,0.1,0.1,0.1, treatment day 9, T4 1 nM
  metamorphosis stage: 2
Individual Exp. 5-3, 175 days old, total length 41.7 mm at start, c3 onward = treatment days 1,3,5,7,8,9,10,11,12,13,14,15,16,17,18, T4 (nM) 10,10,10,10,2,1,0.2,0.1,0.1,0.1,0.1,0.1, treatment day 10, T4 0.2 nM
  metamorphosis stage: 2
Individual Exp. 5-3, 175 days old, total length 41.7 mm at start, c3 onward = treatment days 1,3,5,7,8,9,10,11,12,13,14,15,16,17,18, T4 (nM) 10,10,10,10,2,1,0.2,0.1,0.1,0.1,0.1,0.1, treatment day 11, T4 0.1 nM
  metamorphosis stage: 3
Individual Exp. 5-3, 175 days old, total length 41.7 mm at start, c3 onward = treatment days 1,3,5,7,8,9,10,11,12,13,14,15,16,17,18, T4 (nM) 10,10,10,10,2,1,0.2,0.1,0.1,0.1,0.1,0.1, treatment day 12, T4 0.1 nM
  metamorphosis stage: 3
Individual Exp. 5-3, 175 days old, total length 41.7 mm at start, c3 onward = treatment days 1,3,5,7,8,9,10,11,12,13,14,15,16,17,18, T4 (nM) 10,10,10,10,2,1,0.2,0.1,0.1,0.1,0.1,0.1, treatment day 13, T4 0.1 nM
  metamorphosis stage: 3
Individual Exp. 5-3, 175 days old, total length 41.7 mm at start, c3 onward = treatment days 1,3,5,7,8,9,10,11,12,13,14,15,16,17,18, T4 (nM) 10,10,10,10,2,1,0.2,0.1,0.1,0.1,0.1,0.1, treatment day 14, T4 0.1 nM
  metamorphosis stage: 3
Individual Exp. 5-3, 175 days old, total length 41.7 mm at start, c3 onward = treatment days 1,3,5,7,8,9,10,11,12,13,14,15,16,17,18, T4 (nM) 10,10,10,10,2,1,0.2,0.1,0.1,0.1,0.1,0.1, treatment day 15, T4 0.1 nM
  metamorphosis stage: 3
Individual Exp. 5-3, 175 days old, total length 41.7 mm at start, c3 onward = treatment days 1,3,5,7,8,9,10,11,12,13,14,15,16,17,18, T4 (nM) 10,10,10,10,2,1,0.2,0.1,0.1,0.1,0.1,0.1, treatment day 16
  metamorphosis stage: 3
Individual Exp. 5-3, 175 days old, total length 41.7 mm at start, c3 onward = treatment days 1,3,5,7,8,9,10,11,12,13,14,15,16,17,18, T4 (nM) 10,10,10,10,2,1,0.2,0.1,0.1,0.1,0.1,0.1, treatment day 17
  metamorphosis stage: 3
Individual Exp. 5-3, 175 days old, total length 41.7 mm at start, c3 onward = treatment days 1,3,5,7,8,9,10,11,12,13,14,15,16,17,18, T4 (nM) 10,10,10,10,2,1,0.2,0.1,0.1,0.1,0.1,0.1, treatment day 18
  metamorphosis stage: 4
Individual Exp. 5-6, 174 days old, total length 34.5 mm at start, c3 onward = treatment days 1,3,5,7,8,9,10,11,12,13,14,15,16,17,18,20,22, T4 (nM) 10,10,10,10,10,10,10,2,1,1,0.2,0.1,0.1,0.1,0.1,0.1,0.1, treatment day 1, T4 10 nM
  metamorphosis stage: L
Individual Exp. 5-6, 174 days old, total length 34.5 mm at start, c3 onward = treatment days 1,3,5,7,8,9,10,11,12,13,14,15,16,17,18,20,22, T4 (nM) 10,10,10,10,10,10,10,2,1,1,0.2,0.1,0.1,0.1,0.1,0.1,0.1, treatment day 3, T4 10 nM
  metamorphosis stage: L
Individual Exp. 5-6, 174 days old, total length 34.5 mm at start, c3 onward = treatment days 1,3,5,7,8,9,10,11,12,13,14,15,16,17,18,20,22, T4 (nM) 10,10,10,10,10,10,10,2,1,1,0.2,0.1,0.1,0.1,0.1,0.1,0.1, treatment day 5, T4 10 nM
  metamorphosis stage: L
Individual Exp. 5-6, 174 days old, total length 34.5 mm at start, c3 onward = treatment days 1,3,5,7,8,9,10,11,12,13,14,15,16,17,18,20,22, T4 (nM) 10,10,10,10,10,10,10,2,1,1,0.2,0.1,0.1,0.1,0.1,0.1,0.1, treatment day 7, T4 10 nM
  metamorphosis stage: L
Individual Exp. 5-6, 174 days old, total length 34.5 mm at start, c3 onward = treatment days 1,3,5,7,8,9,10,11,12,13,14,15,16,17,18,20,22, T4 (nM) 10,10,10,10,10,10,10,2,1,1,0.2,0.1,0.1,0.1,0.1,0.1,0.1, treatment day 8, T4 10 nM
  metamorphosis stage: 2
Individual Exp. 5-6, 174 days old, total length 34.5 mm at start, c3 onward = treatment days 1,3,5,7,8,9,10,11,12,13,14,15,16,17,18,20,22, T4 (nM) 10,10,10,10,10,10,10,2,1,1,0.2,0.1,0.1,0.1,0.1,0.1,0.1, treatment day 9, T4 10 nM
  metamorphosis stage: 2
Individual Exp. 5-6, 174 days old, total length 34.5 mm at start, c3 onward = treatment days 1,3,5,7,8,9,10,11,12,13,14,15,16,17,18,20,22, T4 (nM) 10,10,10,10,10,10,10,2,1,1,0.2,0.1,0.1,0.1,0.1,0.1,0.1, treatment day 10, T4 10 nM
  metamorphosis stage: 2
